Measurements reported in ChEMBL document CHEMBL1909046, “DrugMatrix in vitro pharmacology data”.

How the values were obtained:
[1] = target: Aldo-keto reductase family 1 member B1 (Rattus norvegicus, UniProt P07943); experiment: biochemical; type: tissue-based, Lens of camera-type eye;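 also: inhibition of aldose reductase enzyme activity, measured with DL-glyceraldehyde as the substrate; in other assays of this panel Not Active means under 50% inhibition at 10 µM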
[2] = target: T1, Calcitonin receptor (Homo sapiens, UniProt P30988); type: cell membranes, Membrane; conditions: t47d; also: in other assays of this panel Not Active means under 50% inhibition at 10 µM
T1 sequence (P30988 whole entry): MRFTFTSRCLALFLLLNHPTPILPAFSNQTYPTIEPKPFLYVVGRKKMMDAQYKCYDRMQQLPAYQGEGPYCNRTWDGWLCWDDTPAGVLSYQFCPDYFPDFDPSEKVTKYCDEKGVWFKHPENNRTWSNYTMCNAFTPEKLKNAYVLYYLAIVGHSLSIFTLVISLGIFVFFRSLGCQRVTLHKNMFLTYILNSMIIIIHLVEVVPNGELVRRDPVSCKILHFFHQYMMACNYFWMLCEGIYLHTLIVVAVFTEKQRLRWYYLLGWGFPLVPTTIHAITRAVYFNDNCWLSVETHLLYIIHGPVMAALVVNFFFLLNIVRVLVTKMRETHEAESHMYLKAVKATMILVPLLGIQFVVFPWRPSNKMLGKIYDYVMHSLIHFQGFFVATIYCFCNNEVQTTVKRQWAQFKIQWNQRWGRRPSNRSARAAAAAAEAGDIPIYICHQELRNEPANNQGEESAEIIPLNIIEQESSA

[3] = DRUGMATRIX: Calcium Channel Type L, Phenylalkylamine radioligand binding (ligand: [3H] (-)-Desmethoxyverapamil (D-888)); type: cell membranes, Rattus norvegicus, Wistar, Brain, Membrane; conditions: Not Active = under 50% inhibition at 10 µM
[4] = target: T2, D(4) dopamine receptor (Homo sapiens, UniProt P21917); experiment: DRUGMATRIX: Dopamine D4.2 radioligand binding (ligand: [3H] Spiperone); type: cell membranes, CHO-K1, Membrane; conditions: cho-k1; Not Active = under 50% inhibition at 10 µM
T2 sequence (P21917 whole entry): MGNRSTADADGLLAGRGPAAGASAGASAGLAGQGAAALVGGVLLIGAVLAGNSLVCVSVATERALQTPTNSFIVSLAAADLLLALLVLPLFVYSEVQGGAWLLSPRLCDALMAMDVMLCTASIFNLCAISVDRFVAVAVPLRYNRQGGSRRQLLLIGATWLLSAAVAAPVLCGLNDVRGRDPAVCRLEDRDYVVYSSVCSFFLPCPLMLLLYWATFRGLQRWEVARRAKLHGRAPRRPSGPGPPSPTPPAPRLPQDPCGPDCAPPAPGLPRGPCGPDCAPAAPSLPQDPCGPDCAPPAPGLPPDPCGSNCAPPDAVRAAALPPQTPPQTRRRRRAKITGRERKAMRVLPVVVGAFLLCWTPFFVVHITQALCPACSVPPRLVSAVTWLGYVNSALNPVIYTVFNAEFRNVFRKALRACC

[5] = target: T3, Endothelin-1 receptor (Homo sapiens, UniProt P25101); type: cell membranes, CHO-K1, Membrane; conditions: cho-k1; also: in other assays of this panel Not Active means under 50% inhibition at 10 µM
T3 sequence (P25101 whole entry): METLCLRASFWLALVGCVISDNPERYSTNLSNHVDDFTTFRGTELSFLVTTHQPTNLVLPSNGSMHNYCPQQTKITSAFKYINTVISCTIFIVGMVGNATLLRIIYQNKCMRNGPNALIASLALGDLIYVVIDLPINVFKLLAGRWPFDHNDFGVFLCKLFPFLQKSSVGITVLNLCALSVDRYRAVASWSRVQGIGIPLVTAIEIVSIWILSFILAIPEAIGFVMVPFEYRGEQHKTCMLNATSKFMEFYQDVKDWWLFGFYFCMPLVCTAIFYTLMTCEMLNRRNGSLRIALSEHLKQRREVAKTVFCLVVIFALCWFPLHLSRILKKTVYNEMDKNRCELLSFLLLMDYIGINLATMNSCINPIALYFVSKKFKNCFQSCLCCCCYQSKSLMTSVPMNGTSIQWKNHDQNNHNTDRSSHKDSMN

[6] = DRUGMATRIX: GABAA, Muscimol, Central radioligand binding (ligand: [3H] Muscimol); type: cell membranes, Rattus norvegicus, Wistar, Brain, Membrane; conditions: Not Active = under 50% inhibition at 10 µM
[7] = DRUGMATRIX: Glutamate, NMDA, Agonism radioligand binding (ligand: [3H] CGP-39653); type: cell membranes, Rattus norvegicus, Wistar, Cerebral cortex, Membrane; conditions: Not Active = under 50% inhibition at 10 µM
[8] = target: T4, Angiotensin-converting enzyme (Oryctolagus cuniculus, UniProt P12822); type: tissue-based, Lung;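 also: enzymatic inhibition of angiotensin-converting enzyme measured with FAPGG as the substrate; in other assays of this panel Not Active means under 50% inhibition at 10 µM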
T4 sequence (P12822 whole entry): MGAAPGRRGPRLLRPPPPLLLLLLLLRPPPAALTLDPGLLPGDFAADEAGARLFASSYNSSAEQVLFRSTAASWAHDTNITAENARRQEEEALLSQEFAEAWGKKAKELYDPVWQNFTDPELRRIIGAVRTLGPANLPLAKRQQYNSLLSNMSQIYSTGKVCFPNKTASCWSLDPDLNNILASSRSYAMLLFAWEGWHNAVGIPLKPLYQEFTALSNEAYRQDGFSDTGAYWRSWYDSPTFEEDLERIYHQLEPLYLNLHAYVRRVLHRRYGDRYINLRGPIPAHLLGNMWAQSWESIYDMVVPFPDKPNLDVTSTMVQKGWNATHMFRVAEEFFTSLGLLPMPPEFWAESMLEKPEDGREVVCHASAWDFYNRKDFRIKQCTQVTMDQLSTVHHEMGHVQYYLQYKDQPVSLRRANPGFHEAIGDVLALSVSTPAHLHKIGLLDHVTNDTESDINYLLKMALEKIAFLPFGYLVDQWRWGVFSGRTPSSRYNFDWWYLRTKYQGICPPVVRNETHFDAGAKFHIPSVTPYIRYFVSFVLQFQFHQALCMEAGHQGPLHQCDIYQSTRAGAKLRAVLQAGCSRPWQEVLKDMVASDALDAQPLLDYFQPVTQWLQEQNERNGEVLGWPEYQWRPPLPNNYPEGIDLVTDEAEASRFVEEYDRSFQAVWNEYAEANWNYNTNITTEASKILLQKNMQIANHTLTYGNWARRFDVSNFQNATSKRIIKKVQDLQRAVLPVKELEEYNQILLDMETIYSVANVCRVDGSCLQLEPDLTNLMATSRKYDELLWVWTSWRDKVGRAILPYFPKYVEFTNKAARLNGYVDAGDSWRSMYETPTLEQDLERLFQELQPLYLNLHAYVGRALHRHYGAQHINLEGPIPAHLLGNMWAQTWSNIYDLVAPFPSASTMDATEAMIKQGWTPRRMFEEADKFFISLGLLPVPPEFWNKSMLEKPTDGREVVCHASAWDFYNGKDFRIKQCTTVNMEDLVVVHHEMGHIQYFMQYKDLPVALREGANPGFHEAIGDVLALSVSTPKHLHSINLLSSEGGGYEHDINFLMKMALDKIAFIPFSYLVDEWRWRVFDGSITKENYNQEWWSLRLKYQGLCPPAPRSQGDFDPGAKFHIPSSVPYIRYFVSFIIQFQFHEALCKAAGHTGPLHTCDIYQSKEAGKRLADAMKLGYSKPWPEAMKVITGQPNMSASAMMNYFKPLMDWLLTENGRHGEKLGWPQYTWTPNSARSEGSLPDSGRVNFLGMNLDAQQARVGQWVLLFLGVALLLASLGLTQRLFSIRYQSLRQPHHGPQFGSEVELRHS

C=C1/C(=C\C=C2/CCC[C@]3(C)[C@@H]([C@H](C)CCCC(C)C)CC[C@@H]23)C[C@@H](O)C[C@@H]1O [ALFACALCIDOL]
Not Active: IC50 [1] | IC50 [2] | IC50 [3] | Ki [3] | IC50 [4] | IC50 [5] | IC50 [6] | Ki [6] | IC50 [7] | Ki [7] | IC50 [8]

CCCCCC[C@H]1C(=O)O[C@H](C)[C@H](NC(=O)c2cccc(NC=O)c2O)C(=O)O[C@@H](C)[C@@H]1OC(=O)CC(C)C [ANTIMYCIN A]
Not Active: IC50 [1] | IC50 [2] | IC50 [3] | Ki [3] | IC50 [4] | IC50 [5] | IC50 [6] | Ki [6] | IC50 [7] | Ki [7] | IC50 [8]

C[C@@H]1CC[C@H]2[C@@H](C)C(=O)O[C@@H]3O[C@@]4(C)CC[C@@H]1[C@]32OO4 [ARTEMISININ]
Not Active: IC50 [1] | IC50 [2] | IC50 [3] | Ki [3] | IC50 [4] | IC50 [5] | IC50 [6] | Ki [6] | IC50 [7] | Ki [7] | IC50 [8]

CO[C@H]1[C@@H](O)[C@H](N)[C@@H](O[C@H]2O[C@H]([C@H](C)N)CC[C@H]2N)[C@H](O)[C@@H]1N(C)C(=O)CN [ASTROMICIN]
Not Active: IC50 [1] | IC50 [2] | IC50 [3] | Ki [3] | IC50 [4] | IC50 [5] | IC50 [6] | Ki [6] | IC50 [7] | Ki [7] | IC50 [8]

[N-]=[N+]=CC(=O)OC[C@H](N)C(=O)O [AZASERINE]
Not Active: IC50 [1] | IC50 [2] | IC50 [3] | Ki [3] | IC50 [4] | IC50 [5] | IC50 [6] | Ki [6] | IC50 [7] | Ki [7] | IC50 [8]

CC[C@H]1OC(=O)[C@H](C)[C@@H](O[C@H]2C[C@@](C)(OC)[C@@H](O)[C@H](C)O2)[C@H](C)[C@@H](O[C@@H]2O[C@H](C)C[C@H](N(C)C)[C@H]2O)[C@](C)(O)C[C@@H](C)CN(C)[C@H](C)[C@@H](O)[C@]1(C)O [AZITHROMYCIN]
Not Active: IC50 [1] | IC50 [2] | IC50 [3] | Ki [3] | IC50 [4] | IC50 [5] | IC50 [6] | Ki [6] | IC50 [7] | Ki [7] | IC50 [8]

CC(C)(C)c1ccc(S(=O)(=O)/C=C/C#N)cc1 [BAY-11-7085]
Not Active: IC50 [1] | IC50 [2] | IC50 [3] | Ki [3] | IC50 [4] | IC50 [5] | IC50 [6] | Ki [6] | IC50 [7] | Ki [7] | IC50 [8]

CCc1oc2ccccc2c1C(=O)c1cc(Br)c(O)c(Br)c1 [BENZBROMARONE]
Not Active: IC50 [1] | IC50 [2] | IC50 [3] | Ki [3] | IC50 [4] | IC50 [5] | IC50 [6] | Ki [6] | IC50 [7] | Ki [7] | IC50 [8]

O=c1cc(-c2ccccc2)oc2ccc3ccccc3c12 [BETA-NAPHTHOFLAVONE]
Not Active: IC50 [1] | IC50 [2] | IC50 [3] | Ki [3] | IC50 [4] | IC50 [5] | IC50 [6] | Ki [6] | IC50 [7] | Ki [7] | IC50 [8]

CC(C)C[C@H]1C(=O)N2CCC[C@H]2[C@]2(O)O[C@](NC(=O)[C@@H]3C=C4c5cccc6[nH]c(Br)c(c56)C[C@H]4N(C)C3)(C(C)C)C(=O)N12 [BROMOCRIPTINE]
Not Active: IC50 [1] | IC50 [2] | IC50 [3] | Ki [3] | IC50 [4] | IC50 [5] | IC50 [6] | Ki [6] | IC50 [7] | Ki [7] | IC50 [8]
